Columns and labels:
JAK1 = molecular target: T1, JAK1 (Homo sapiens, UniProt P23458); assay: Probe-based (AX9989) kinase profiling in Jurkat lysate: JAK1; type: binding; conditions: screening concentration 10 μM; read-out: JAK1 Inhibition % at indicated screening concentration
T1 construct: screened for activity against several kinases in Jurkat cells; endogenous in cells; host or cells: Jurkat cell lysate
Outline: (§1)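 Gel-filtered Jurkat lysate (HEPES pH 7.5, 20 mM MnCl2, 5 mg/ml) was pre-incubated 15 min with compound at room temperature, then labelled with 5 μM acyl-phosphate ATP probe AX9989. Tryptic probe-labelled active-site peptides were streptavidin-captured and quantified by LC/MS. Percent inhibition reflected the decrease in labelled-peptide intensity versus no compound.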

ERK5 = molecular target: T2, ERK5 (Homo sapiens, UniProt Q13164); assay: Probe-based (AX9989 acyl phosphate ATP probe) kinase profiling in Jurkat lysate: ERK5; type: binding; conditions: for IC50: calculated from percent inhibition and screening concentration, Jurkat lysate, AX9989 probe; for inhibition at 10 µM: screening concentration 10 μM, read-out: ERK5 Inhibition % at indicated screening concentration
T2 construct: screened for activity against several kinases in Jurkat cells; endogenous in cells; host or cells: Jurkat cell lysate
T2 sequence (Q13164 whole entry): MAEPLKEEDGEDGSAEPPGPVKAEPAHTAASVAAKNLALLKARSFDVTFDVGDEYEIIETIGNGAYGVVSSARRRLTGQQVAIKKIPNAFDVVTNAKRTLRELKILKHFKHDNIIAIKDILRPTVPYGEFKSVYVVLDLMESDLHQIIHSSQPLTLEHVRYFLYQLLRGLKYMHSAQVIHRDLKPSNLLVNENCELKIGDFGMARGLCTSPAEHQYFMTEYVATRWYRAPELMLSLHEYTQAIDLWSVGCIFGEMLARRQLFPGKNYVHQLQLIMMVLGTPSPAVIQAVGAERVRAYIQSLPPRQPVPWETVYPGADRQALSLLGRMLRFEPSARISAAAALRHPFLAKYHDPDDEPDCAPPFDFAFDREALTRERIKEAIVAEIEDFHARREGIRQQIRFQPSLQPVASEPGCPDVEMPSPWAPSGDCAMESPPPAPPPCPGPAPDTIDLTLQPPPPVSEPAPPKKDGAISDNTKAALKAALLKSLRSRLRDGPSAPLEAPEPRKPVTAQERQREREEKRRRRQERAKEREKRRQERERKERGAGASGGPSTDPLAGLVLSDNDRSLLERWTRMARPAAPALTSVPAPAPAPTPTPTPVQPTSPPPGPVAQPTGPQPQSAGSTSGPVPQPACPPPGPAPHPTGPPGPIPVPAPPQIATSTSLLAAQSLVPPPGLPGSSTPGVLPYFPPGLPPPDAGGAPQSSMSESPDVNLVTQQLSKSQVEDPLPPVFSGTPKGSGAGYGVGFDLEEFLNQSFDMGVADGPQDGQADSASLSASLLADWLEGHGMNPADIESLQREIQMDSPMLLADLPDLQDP
Outline: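 Gel-filtered Jurkat lysate (5 mg/ml, 20 mM MnCl2) preincubated 15 min at room temperature with compound, then labelled with 5 μM AX9989 acyl phosphate ATP probe. Probe-labelled ERK5 active-site peptides quantified by LC/MS after trypsin digestion and streptavidin capture; IC50 calculated from percent inhibition at the screening concentration.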

AurB or AurC = assay: Probe-based (AX9989) kinase profiling in Jurkat lysate: AurB or AurC; type: binding; conditions: screening concentration 10 μM
Outline: as §1

human PBMCs = assay: Human PBMC TNF-α response to endotoxin (ELISA); type: cell-based; conditions: 0.1 μg/ml LPS 16 h, read-out: EC50 for the inhibition of the human PBMC TNF-α response to endotoxin, ave. ± S.D.
Outline: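 PBMCs at 2e6 cells/ml in RPMI 1640 with 10% charcoal-dextran-treated FBS were pre-treated 1 h at 37 °C with compound (4-point 1:5 dilution from 10 μM). Stimulation with 0.1 μg/ml E. coli 0111:B4 LPS for 16 h; TNF-α measured by ELISA (A450) in 25-fold diluted supernatant.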

[1] = molecular target: T3, recombinant human ERK5 catalytic domain (Homo sapiens, UniProt Q13164); assay: Recombinant human ERK5 radiometric (HotSpot) assay; type: biochemical; conditions: 10 μM ATP, 20 μM myelin basic protein substrate; read-out: rhERK5 IC50
T3 construct: Recombinant human ERK5 catalytic domain radiometric assays; purchased Reaction Biology, Corp (Malvern, Pa.), which ran the assay as a service
T3 sequence (Q13164 55-347 limits assumed): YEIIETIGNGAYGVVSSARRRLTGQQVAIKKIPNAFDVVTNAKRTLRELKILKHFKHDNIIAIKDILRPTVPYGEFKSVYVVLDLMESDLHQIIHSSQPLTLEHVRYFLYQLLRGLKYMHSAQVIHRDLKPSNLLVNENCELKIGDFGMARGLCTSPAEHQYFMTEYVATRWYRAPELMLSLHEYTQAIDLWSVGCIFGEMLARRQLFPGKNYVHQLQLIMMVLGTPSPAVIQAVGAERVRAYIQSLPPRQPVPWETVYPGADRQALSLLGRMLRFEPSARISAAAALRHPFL
Outline: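 Radiometric filter-binding HotSpot assay using [γ-33P]-ATP tracer with 10 μM cold ATP and 20 μM myelin basic protein substrate. Compounds tested in 10-point, ⅓-fold serial dilution from 20 μM; […].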

ACK = molecular target: T4, ACK (Homo sapiens, UniProt Q07912); assay: Probe-based (AX9989) kinase profiling in Jurkat lysate: ACK; type: binding; conditions: screening concentration 10 μM; read-out: ACK Inhibition % at indicated screening concentration
T4 construct: screened for activity against several kinases in Jurkat cells; endogenous in cells; host or cells: Jurkat cell lysate
T4 sequence (Q07912 whole entry): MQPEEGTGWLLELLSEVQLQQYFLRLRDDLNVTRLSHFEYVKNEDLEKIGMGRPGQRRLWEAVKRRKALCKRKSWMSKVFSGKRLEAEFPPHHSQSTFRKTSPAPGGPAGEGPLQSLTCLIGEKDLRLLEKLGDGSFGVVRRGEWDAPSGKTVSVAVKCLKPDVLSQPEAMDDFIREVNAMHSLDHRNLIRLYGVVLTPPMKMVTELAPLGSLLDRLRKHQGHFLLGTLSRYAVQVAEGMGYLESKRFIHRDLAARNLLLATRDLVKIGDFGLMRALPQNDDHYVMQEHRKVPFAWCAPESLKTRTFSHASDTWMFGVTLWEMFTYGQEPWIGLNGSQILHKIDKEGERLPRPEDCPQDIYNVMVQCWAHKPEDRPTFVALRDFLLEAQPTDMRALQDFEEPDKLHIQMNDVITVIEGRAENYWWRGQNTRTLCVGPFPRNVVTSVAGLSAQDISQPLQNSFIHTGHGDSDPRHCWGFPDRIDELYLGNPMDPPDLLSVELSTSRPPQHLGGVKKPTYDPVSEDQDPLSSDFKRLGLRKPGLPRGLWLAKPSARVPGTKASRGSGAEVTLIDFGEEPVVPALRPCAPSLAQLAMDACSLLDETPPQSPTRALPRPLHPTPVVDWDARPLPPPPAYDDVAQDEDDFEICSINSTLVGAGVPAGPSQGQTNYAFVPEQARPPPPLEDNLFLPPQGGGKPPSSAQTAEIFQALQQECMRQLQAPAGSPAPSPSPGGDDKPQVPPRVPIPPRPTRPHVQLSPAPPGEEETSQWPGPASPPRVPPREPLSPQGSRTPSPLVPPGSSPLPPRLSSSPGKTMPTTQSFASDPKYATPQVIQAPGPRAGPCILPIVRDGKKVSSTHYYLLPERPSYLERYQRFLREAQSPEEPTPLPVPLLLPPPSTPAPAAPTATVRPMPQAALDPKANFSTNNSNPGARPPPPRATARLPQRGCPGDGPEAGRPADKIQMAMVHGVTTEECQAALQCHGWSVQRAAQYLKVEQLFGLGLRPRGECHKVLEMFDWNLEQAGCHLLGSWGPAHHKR
Outline: as §1

AurA = molecular target: T5, AurA (Homo sapiens, UniProt O14965); assay: Probe-based (AX9989) kinase profiling in Jurkat lysate: AurA; type: binding; conditions: screening concentration 10 μM; read-out: AurA Inhibition % at indicated screening concentration
T5 construct: screened for activity against several kinases in Jurkat cells; endogenous in cells; host or cells: Jurkat cell lysate
T5 sequence (O14965 1-403): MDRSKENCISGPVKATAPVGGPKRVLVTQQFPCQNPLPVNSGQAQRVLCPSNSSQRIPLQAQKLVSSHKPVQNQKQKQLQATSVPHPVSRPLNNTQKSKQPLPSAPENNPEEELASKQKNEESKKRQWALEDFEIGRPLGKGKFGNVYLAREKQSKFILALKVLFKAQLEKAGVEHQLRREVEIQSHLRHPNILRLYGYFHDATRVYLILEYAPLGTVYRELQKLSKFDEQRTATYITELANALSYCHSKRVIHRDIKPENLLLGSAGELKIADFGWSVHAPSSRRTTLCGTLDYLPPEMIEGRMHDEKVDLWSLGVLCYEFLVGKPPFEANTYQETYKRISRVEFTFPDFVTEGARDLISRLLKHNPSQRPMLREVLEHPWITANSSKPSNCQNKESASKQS
Outline: as §1

T1 sequence (P23458 whole entry): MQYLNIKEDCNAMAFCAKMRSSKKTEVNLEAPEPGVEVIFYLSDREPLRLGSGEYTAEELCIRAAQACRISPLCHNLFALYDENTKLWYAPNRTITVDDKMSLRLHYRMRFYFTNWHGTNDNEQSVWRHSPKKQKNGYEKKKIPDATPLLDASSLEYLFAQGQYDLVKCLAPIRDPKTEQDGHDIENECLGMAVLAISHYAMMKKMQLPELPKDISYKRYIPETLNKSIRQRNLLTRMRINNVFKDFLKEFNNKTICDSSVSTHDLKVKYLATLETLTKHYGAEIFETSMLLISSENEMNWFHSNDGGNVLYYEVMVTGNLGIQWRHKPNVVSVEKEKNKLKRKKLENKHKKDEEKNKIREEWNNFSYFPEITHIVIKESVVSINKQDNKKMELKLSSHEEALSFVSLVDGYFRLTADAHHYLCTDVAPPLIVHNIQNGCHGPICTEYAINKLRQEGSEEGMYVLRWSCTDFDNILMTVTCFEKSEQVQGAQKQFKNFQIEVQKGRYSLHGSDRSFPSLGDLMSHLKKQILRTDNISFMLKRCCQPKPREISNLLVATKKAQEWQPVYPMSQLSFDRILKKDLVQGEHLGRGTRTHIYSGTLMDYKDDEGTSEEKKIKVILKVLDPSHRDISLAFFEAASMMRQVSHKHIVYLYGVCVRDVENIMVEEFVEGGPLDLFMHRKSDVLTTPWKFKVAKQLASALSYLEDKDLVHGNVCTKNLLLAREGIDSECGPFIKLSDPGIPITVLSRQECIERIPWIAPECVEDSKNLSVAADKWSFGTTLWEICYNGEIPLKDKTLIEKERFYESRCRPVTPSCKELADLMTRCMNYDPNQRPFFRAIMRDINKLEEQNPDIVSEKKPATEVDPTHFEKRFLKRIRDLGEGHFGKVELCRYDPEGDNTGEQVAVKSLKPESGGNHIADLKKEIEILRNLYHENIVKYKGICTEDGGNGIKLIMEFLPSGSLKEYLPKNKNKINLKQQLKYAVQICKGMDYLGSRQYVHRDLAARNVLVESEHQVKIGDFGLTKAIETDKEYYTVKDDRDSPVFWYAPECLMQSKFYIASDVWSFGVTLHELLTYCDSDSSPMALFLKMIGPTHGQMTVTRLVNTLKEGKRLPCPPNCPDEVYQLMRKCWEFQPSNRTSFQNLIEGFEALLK

| inhibition at 10 µM (JAK1) [%] | IC50 (ERK5) [nM] | inhibition at 10 µM (ERK5) [%] | AurB or AurC Inhibition % at indicated screening concentration (AurB or AurC) | IC50 [1] [nM] | inhibition at 10 µM (ACK) [%] | inhibition at 10 µM (AurA) [%] | SMILES | EC50 (human PBMCs) [nM] |
| --- | --- | --- | --- | --- | --- | --- | --- | --- |
| ≤ 35 | 101 to 500 | > 90 | E (E is ≦35%) | 20 to 50 | ≤ 35 | ≤ 35 | CCOc1cc(C(=O)N2CCN(C3CCN(C)CC3)CC2)ccc1Nc1cc2c(cn1)N(C)C(=O)c1c(F)cccc1O2 [Compound T102] | 290 ± 280 |
| ≤ 35 | 101 to 500 | > 90 | E (E is ≦35%) | > 200 | ≤ 35 | ≤ 35 | C[C@@H]1C[C@H](Nc2cc3c(cn2)N(C)C(=O)c2ccccc2N3C)CC[C@H]1O [Compound T115] | 780 ± 690 |
